Common to all, as to assay: Z'-LYTE kinase panel
What all share (format): biochemical

In one assay the target is T1, ADRBK1 (GRK2) (Homo sapiens, UniProt P25098).
T1 construct: purchased ThermoFisher (SelectScreen, Z'-LYTE)
T1 sequence (P25098 1-689): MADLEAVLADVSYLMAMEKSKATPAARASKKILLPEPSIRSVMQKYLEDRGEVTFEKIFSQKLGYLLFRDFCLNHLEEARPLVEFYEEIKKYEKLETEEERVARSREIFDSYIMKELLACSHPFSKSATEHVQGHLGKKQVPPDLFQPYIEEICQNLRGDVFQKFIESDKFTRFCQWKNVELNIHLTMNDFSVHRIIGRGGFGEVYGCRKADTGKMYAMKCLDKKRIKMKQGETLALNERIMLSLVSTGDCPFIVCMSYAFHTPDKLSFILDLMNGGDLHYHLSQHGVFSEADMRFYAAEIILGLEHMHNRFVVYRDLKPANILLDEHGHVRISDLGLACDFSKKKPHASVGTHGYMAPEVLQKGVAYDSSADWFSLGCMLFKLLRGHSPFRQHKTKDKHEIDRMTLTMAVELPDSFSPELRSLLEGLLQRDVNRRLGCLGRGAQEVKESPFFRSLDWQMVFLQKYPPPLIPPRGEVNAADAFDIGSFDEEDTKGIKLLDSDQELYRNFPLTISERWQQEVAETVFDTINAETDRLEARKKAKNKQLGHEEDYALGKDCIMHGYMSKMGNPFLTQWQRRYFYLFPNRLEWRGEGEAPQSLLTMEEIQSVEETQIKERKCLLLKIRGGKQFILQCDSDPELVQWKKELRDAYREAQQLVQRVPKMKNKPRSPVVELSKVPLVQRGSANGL
Here is the method: (§1) Compounds 2, 3 and 5 were tested for activity against the 225 kinases in the ThermoFisher standard kinase panel. The standard Z′-LYTE assay protocol (ThermoFisher) was used to measure the percentage inhibition at 10 µM compound concentration (details are provided in the supporting information).

In another assay the target is T2, BRSK1 (SAD1) (Homo sapiens, UniProt Q8TDC3).
T2 construct: purchased ThermoFisher (SelectScreen, Z'-LYTE)
T2 sequence (Q8TDC3 1-778): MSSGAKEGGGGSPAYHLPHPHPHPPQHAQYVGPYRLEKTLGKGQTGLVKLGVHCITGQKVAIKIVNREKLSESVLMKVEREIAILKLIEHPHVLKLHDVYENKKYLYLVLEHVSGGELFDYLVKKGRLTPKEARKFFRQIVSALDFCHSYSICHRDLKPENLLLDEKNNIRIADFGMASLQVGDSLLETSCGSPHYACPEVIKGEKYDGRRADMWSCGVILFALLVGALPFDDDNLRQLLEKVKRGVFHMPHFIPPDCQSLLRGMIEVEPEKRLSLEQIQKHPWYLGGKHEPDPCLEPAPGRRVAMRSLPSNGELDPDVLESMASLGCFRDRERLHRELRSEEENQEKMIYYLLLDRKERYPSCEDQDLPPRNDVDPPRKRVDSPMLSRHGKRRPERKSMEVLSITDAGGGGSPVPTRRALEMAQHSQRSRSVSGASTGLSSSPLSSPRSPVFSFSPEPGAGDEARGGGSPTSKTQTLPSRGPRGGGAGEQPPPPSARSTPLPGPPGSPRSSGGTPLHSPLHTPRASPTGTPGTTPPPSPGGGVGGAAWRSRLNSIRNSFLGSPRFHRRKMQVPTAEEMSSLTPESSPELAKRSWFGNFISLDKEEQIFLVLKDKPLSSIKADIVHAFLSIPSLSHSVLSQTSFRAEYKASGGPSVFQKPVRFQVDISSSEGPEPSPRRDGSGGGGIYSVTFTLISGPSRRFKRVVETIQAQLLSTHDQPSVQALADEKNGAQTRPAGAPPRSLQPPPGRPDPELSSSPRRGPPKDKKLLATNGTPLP
Here is the method: as §1

For a further assay, the target named is T3, BTK (Homo sapiens, UniProt Q06187).
T3 construct: purchased ThermoFisher (SelectScreen, Z'-LYTE)
Here is the method:
as §1

A further assay deals with T4, CDC42 BPB (MRCKB) (Homo sapiens, UniProt Q9Y5S2).
T4 construct: purchased ThermoFisher (SelectScreen, Z'-LYTE)
The protocol:
as §1

The next assay concerns the target T5, CHEK2 (CHK2) (Homo sapiens, UniProt O96017).
T5 construct: purchased ThermoFisher (SelectScreen, Z'-LYTE)
The protocol:
as §1

Another assay deals with T6, PLK1 (Homo sapiens, UniProt P53350).
T6 construct: purchased ThermoFisher (SelectScreen, Z'-LYTE)
The protocol:
as §1

Another assay has as its target T7, PRKCB1 (PKC beta I) (Homo sapiens, UniProt P05771).
T7 construct: purchased ThermoFisher (SelectScreen, Z'-LYTE)
Here is the method: as §1

Another assay has as its target T8, PRKCE (PKC epsilon) (Homo sapiens, UniProt Q02156).
T8 construct: purchased ThermoFisher (SelectScreen, Z'-LYTE)
T8 sequence (Q02156 1-737): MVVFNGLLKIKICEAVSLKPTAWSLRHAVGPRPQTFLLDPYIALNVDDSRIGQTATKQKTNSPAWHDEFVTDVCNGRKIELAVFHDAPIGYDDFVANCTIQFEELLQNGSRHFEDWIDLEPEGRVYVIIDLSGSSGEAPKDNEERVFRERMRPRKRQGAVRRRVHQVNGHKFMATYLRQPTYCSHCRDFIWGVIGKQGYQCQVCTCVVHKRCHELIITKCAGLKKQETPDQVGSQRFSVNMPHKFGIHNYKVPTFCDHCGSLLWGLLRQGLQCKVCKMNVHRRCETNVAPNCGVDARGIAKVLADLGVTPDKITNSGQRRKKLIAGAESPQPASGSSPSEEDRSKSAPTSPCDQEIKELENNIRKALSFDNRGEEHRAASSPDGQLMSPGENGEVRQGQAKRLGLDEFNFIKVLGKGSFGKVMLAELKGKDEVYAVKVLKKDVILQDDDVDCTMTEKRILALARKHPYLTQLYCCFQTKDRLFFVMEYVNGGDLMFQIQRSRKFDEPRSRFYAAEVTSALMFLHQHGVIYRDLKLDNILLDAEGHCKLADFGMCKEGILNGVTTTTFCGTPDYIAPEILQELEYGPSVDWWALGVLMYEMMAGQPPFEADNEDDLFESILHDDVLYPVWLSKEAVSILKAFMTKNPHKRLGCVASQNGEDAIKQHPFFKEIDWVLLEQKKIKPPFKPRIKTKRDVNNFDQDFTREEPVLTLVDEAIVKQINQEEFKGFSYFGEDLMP
Here is the method: as §1

T4 sequence (Q9Y5S2 whole entry): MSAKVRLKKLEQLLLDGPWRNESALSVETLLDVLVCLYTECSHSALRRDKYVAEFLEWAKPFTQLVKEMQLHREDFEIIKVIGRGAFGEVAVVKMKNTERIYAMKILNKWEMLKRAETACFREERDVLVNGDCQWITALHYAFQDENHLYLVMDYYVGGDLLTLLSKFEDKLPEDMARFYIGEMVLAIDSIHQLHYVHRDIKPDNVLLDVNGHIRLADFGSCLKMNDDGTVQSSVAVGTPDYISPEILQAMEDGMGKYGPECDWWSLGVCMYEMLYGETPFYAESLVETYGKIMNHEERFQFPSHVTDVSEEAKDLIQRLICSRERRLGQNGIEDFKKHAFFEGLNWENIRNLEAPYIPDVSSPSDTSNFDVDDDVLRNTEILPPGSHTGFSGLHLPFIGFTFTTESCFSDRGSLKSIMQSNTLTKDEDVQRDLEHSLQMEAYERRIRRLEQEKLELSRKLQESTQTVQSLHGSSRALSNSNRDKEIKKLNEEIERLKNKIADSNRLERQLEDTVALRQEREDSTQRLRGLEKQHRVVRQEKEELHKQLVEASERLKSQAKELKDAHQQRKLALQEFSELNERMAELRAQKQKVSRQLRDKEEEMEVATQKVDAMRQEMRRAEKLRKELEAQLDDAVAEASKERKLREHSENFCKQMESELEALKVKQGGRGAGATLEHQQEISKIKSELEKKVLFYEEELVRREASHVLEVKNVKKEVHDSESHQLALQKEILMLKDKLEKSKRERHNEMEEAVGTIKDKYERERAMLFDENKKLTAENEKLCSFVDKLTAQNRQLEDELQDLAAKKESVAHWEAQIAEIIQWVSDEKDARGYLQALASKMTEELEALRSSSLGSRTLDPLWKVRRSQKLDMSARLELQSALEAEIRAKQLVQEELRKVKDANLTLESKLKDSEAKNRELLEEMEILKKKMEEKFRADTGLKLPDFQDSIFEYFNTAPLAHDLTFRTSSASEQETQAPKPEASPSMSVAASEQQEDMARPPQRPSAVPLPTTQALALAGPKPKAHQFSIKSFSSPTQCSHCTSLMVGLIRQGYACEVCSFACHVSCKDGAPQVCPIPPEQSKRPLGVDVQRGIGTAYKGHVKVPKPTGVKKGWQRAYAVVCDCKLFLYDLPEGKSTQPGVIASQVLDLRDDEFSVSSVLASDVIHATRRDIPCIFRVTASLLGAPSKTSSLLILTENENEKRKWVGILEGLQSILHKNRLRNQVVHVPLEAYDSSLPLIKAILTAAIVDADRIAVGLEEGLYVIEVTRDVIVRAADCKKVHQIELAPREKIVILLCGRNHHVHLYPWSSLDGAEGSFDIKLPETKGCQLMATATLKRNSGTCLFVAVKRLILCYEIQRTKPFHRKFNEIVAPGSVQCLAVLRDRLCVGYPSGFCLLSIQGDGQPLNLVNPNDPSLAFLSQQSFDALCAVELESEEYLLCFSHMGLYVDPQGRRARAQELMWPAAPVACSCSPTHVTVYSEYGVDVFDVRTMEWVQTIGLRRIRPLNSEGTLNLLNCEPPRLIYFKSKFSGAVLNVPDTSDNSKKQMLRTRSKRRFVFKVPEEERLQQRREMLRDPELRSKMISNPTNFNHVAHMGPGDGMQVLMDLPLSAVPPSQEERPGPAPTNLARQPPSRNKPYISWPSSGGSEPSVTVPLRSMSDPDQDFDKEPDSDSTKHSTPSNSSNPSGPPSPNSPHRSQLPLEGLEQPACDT
T7 sequence (P05771 whole entry): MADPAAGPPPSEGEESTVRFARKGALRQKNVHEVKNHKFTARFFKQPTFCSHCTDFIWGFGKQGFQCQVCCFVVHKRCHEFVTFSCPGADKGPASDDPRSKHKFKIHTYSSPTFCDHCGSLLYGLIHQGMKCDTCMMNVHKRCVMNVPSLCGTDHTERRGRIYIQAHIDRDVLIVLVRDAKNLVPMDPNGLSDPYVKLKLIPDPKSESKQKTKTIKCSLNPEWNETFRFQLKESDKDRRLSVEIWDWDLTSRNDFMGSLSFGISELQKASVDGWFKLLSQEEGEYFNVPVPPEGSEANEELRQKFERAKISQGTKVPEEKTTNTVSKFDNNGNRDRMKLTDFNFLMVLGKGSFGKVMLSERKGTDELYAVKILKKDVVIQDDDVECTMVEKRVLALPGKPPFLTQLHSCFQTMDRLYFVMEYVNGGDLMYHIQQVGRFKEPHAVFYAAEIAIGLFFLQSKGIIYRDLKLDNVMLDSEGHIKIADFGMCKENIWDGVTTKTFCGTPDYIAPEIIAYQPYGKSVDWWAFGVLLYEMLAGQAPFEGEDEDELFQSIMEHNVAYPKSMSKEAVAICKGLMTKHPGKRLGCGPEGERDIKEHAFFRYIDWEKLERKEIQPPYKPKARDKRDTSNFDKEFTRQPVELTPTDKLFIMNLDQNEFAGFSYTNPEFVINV
T5 sequence (O96017 whole entry): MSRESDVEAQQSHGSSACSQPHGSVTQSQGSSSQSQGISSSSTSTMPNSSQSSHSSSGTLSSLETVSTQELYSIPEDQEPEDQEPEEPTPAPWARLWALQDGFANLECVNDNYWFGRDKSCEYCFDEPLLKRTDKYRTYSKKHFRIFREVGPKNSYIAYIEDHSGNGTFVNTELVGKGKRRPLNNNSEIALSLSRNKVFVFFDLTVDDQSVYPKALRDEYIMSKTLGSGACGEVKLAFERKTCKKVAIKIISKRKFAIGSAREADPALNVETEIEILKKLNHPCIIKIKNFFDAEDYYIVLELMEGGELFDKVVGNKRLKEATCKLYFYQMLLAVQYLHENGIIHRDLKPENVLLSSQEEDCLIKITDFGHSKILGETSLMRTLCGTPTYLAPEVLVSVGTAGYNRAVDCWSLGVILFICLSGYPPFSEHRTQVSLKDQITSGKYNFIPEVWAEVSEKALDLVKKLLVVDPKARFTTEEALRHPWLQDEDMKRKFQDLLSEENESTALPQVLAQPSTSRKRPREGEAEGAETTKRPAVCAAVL
T3 sequence (Q06187 whole entry): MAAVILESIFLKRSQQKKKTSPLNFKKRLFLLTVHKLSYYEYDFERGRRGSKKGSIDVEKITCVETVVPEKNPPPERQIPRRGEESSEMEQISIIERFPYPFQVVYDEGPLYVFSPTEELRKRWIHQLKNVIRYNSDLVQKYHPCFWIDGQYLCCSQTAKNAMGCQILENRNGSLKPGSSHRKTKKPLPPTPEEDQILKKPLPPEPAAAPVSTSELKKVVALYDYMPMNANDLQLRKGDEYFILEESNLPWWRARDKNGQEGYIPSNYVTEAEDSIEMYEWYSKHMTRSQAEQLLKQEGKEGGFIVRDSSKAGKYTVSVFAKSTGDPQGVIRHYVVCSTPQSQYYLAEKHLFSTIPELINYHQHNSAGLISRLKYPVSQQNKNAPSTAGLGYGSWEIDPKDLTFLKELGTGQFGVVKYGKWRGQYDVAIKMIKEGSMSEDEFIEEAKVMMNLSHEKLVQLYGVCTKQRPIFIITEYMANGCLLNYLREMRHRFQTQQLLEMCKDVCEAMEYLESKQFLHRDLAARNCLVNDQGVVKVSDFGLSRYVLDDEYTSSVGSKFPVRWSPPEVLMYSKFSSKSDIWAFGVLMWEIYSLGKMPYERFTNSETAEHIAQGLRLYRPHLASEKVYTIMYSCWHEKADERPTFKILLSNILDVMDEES
T6 sequence (P53350 whole entry): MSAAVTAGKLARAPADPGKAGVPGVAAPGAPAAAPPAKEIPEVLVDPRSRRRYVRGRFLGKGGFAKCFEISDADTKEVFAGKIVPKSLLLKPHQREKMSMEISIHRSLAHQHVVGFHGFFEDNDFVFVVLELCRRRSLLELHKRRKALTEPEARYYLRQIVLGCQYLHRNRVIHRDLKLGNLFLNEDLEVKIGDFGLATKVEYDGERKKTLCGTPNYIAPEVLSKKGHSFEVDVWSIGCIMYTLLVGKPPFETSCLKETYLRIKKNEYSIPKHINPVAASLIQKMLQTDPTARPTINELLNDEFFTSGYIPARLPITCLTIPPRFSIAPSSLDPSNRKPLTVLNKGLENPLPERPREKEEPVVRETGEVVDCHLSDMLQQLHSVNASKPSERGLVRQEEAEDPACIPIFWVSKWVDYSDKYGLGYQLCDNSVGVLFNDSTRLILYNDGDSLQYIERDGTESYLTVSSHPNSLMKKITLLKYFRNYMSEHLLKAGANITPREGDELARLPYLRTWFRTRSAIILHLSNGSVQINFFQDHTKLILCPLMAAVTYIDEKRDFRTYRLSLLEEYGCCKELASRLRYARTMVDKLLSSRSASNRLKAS

In the case of “XMD8-92 [Compound 2, reference compound]”, at ADRBK1 (GRK2) (10 µM compound, ATP Km app), the “ADRBK1 (GRK2) % Inhibition” value is listed as -1%. Moreover, the “BRSK1 (SAD1) % Inhibition” value on BRSK1 (SAD1) (10 µM compound, ATP Km app) is 80%. The “BTK % Inhibition” value on BTK (10 µM compound, ATP Km app) is listed as 35%. Further, at CDC42 BPB (MRCKB) (10 µM compound, ATP Km app), the “CDC42 BPB (MRCKB) % Inhibition” value is listed as -11%. Besides, the “CHEK2 (CHK2) % Inhibition” value on CHEK2 (CHK2) (10 µM compound, ATP Km app) is recorded as 26%. The “PLK1 % Inhibition” value at PLK1 (10 µM compound, ATP Km app) is reported as 10%. Moreover, the “PRKCB1 (PKC beta I) % Inhibition” value on PRKCB1 (PKC beta I) (10 µM compound, ATP Km app) was 13%. Besides, the “PRKCE (PKC epsilon) % Inhibition” value at PRKCE (PKC epsilon) (10 µM compound, ATP Km app) stood at 1.55%.
Turning to `Cc1cc(Nc2nc(N)nn2C(=O)NC(C)C)ccc1Cl` [Compound 5], the inhibition at 10 µM on ADRBK1 (GRK2) is -0.227%; on BRSK1 (SAD1), 35%; against BTK, 11%; at CDC42 BPB (MRCKB) it was 5.45%; on CHEK2 (CHK2), 4.23%; against PLK1, 0.455%. Moreover, the inhibition at 10 µM against PRKCB1 (PKC beta I) is 2.25%; against PRKCE (PKC epsilon) it was -17%.
As to `Cc1ncc(-c2nc(Nc3ccc(C(=O)NCCN4CCCCC4)cc3)ncc2F)n1C(C)C` [Compound 3], the inhibition at 10 µM against ADRBK1 (GRK2) was found to be 17%; against BRSK1 (SAD1), 91%; at BTK, 59%; against CDC42 BPB (MRCKB), 8%; at CHEK2 (CHK2), 88%; against PLK1, 57%. Moreover, the values for the inhibition at 10 µM at PRKCB1 (PKC beta I) and on PRKCE (PKC epsilon) were 86% and 45%, respectively.
